# Measurements reported in patent US20050158264A1, “Sympathetic nerve-stimulating fragrant compositions” (SHISEIDO COMPANY, LTD., priority 2000, published 2005).
# Counter-ions that a name gives are not always drawn.
# System: sympathetic nerves
# Assay: Measurement of sympathetic nerve activity by systolic blood pressure fluctuation analysis (FLUCLET) while smelling fragrance
# Type: in vivo
# Details: subjects smelling fragrance 3 minutes vs 3 minutes without fragrance, FIG. 1-4
# Description: Cardiac rate intervals (heartbeat intervals) and blood pressure changes (fluctuations) are complex even during resting periods, and are governed by several systems including the sympathetic and parasympathetic nervous systems. It is known that frequency analysis of heartbeat intervals and blood pressure fluctuations can used to calculate the activity of each of these systems. The high-frequency component of cardiac rate fluctuation indicates parasympathetic nerve activity while the low-frequency component indicates the combined activity of the sympathetic and parasympathetic nervous systems, and the low-frequency component of blood pressure fluctuation indicates sympathetic nerve activity (from material by Dainippon Pharmaceutical Co.). Sympathetic nerve activity was measured by analysis of systolic blood pressure fluctuation using an autonomic nervous system activity analysis system (FLUCLET, product of Dainippon Pharmaceutical Co.). Subjects were allowed to rest for 5 minutes in a thermostatic room at room temperature (24° C.), the blood pressure value was measured on the upper arm and used to correct the blood pressure value at the wrist, and then the wrist blood pressure was continuously measured thereafter. Cotton was placed under the nostrils at the start of measurement, the blood pressure was measured for 3 minutes without fragrant substance, and then the nose cotton was impregnated with fragrant substance and the blood pressure was measured for 3 minutes.
row,Compound,effect of fragrance on relative sympathetic nerve activity (in words)
1,"CCOC(=O)CC(O)(CC(=O)OCC)C(=O)OCC [TEC, triethyl citrate, reference compound]",no change
2,O=C(OCc1ccccc1)c1ccccc1 [benzyl benzoate],increased effect of sympathetic nerve activity
3,C=C(C)[C@H]1CC=C(C)CC1 [limonene],increased effect of sympathetic nerve activity
4,C=CC(=C)CCC=C(C)C [myrcene],increased effect of sympathetic nerve activity
5,pinene,increased effect of sympathetic nerve activity

# System: uncoupling protein-3
# Assay: not given
# Details: 70 mg subcutaneous tissue from 6-week-old rats; caffeine 1 mM, noradrenaline 0.5 μg/ml; FIG. 6
row,Compound,expression of uncoupling protein-3
1,Cn1c(=O)c2c(ncn2C)n(C)c1=O [caffeine],increased expression
